{
  "source": "patent US7589077B2",
  "about": "“Antiviral nucleosides” (priority 2001, dated 2009)",
  "key": {"CEM cells": {"tested_on": "CEM cells", "test": "Cell cytotoxicity in CEM cells", "type": "cell-based", "details": "Table 3a"}, "VZV (Ellen)": {"tested_on": "VZV (Ellen)", "test": "CPE inhibition assay VZV (Ellen) in HFF cells", "type": "cell-based, varicella zoster virus", "protocol": "(§1) Cytopathic effect (CPE) inhibition assays for HSV-1, HSV-2, HCMV and VZV were performed as follows: Low passage human foreskin fibroblasts (HFF) cells were seeded into 96 well tissue culture plates 24 h prior to use at a cell concentration of 2.5×10^4 cells per mL in 0.1 mL of minimal essential medium (MEM) supplemented with 10% fetal bovine serum (FBS). The cells were then incubated for 24 h at 37° C. in a CO2 incubator. After incubation, the medium was removed and 100 μL of MEM containing 2% FBS was added to all but the first row. In the first row, 125 μL of experimental drug was added in triplicate wells. Medium alone was added to both cell and virus control […]. After incubation, the medium was removed and 100 μl of MEM containing 2% FBS was added to all but the first row. Medium alone was added to both cell and virus control wells. 125 μl of Experimental drug was added in triplicate wells. The drug in the first row of wells was then diluted serially 1:5 throughout the remaining wells by transferring 25 μL using the Cetus Liquid Handling Machine. After dilution of drugs, 100 μL of the appropriate virus concentration was added to each well, excluding the cell control wells which received 100 μL of MEM. For HSY-1 and HSV-2 assays, the virus concentration utilized was 1000 PFU's per well. For CMV and VZV assays, the virus concentration added was 2500 PFU's per well. The plates were then incubated at 37° C. in a CO2 incubator for 3 days for HSV-1 and HSV-2, 10 days for VZV, or 14 days for CMV. After the incubation period, media was aspirated and the cells stained with a 0.1% crystal violet solution for 30 min. The stain was then removed and the plates were allowed to dry 24 h and then read on a Skatron Plate Reader at 620 nm."}, "Epstein-Barr Virus (EBV)": {"tested_on": "Epstein-Barr Virus (EBV)", "test": "EBV immunofluorescence assay in DAUDI cells (P3HR-1 strain)", "type": "cell-based", "protocol": "The immunofluorescence assay, using monoclonal antibodies, for Epstein-Barr Virus (EBV) was performed as follows: DAUDI cells were infected with the P3HR-1 strain of EBV and the test drug was added after adsorption (45 min. at 37° C.) and washing of the cell cultures. These cultures were then incubated for 2 days in complete medium to allow viral gene expression. Following the 48 h incubation period, the number of cells in each sample were counted and smears were made. Monoclonal antibodies to the different early antigen (EA) components and VCA were than added to the cells, incubated and washed. This was followed by the addition of a fluorescein conjugated rabbit anti mouse Ig antibodies. The number of fluorescence positive cells in the smears were counted and the total number of cells in the cultures positive for EA or VCA were then calculated and compared."}, "human HBV": {"tested_on": "human HBV", "test": "HBV DNA replication in HepG2 2.2.15 cells", "type": "cell-based, hepatitis B virus", "details": "Table 3a; read-out: % Inhibition of human HBV DNA replication in HepG2 2.2.15 cells EC50", "protocol": "The compounds were assayed for a) their ability to inhibit DHBV DNA replication in duck hepatocytes, b) their ability to inhibit HBV DNA replication in HepG2 2.2.15 cells, c) the cell cytotoxicity in Vero cells, the cell viability in HFF cells, d) the cell proliferation in HFF cells, and e) the T cell proliferation (purified T cells, PHA stimulated). 3-TC was used as a control. Additional compounds described below in the Preparative Examples section were also tested, and the results are shown in Tables 2-4 below. The reference numbers for the compounds are found in the Preparative Examples."}, "HFF cells": {"tested_on": "HFF cells", "test": "Cell viability in HFF cells (neutral red)", "type": "cell-based, human", "protocol": "Twenty-four hours prior to assay HFF cells were plated into 96 well plates at a concentration of 2.5×10^4 cells per well. […] The plates were incubated for 7 days in a CO2 incubator at 37° C. At this time the media/drug was aspirated and 200 μL/well of 0.01% neutral red in Dulbecco's Phosphate Buffered Saline (DPBS) was added. This was incubated in the CO2 incubator for 2 h, the dye was aspirated and the cells were washed using a Nunc Plate Washer. After removing the DPBS wash, […] of 50% EtOH: 1% glacial acetic acid in water was added. The plates were rotated for 15 min. and the optical densities were read at 550 nm on a plate reader."}, "[1]": {"tested_on": "duck hepatitis B virus (DHBV)", "test": "DHBV DNA replication in primary duck hepatocytes (dot blot hybridization)", "type": "cell-based", "protocol": "A series of compounds were synthesized and assayed for activity against duck hepatitis B virus (DHBV). […] Test compounds were added to the hepatocyte cultures on day 2 and maintained in culture with media changed every second day until day 12. Cell were harvested at day 14 and lysed with buffer containing 1% SDS. DNA was isolated from the lysate and dot blot hybridization was performed using a DHBV (32P) DNA probe. […]\n(§2) The compounds were assayed for a) their ability to inhibit DHBV DNA replication in duck hepatocytes, b) their ability to inhibit HBV DNA replication in HepG2 2.2.15 cells, c) the cell cytotoxicity in Vero cells, the cell viability in HFF cells, d) the cell proliferation in HFF cells, and e) the T cell proliferation (purified T cells, PHA stimulated). 3-TC was used as a control."}, "Vero cells": {"tested_on": "Vero cells", "test": "Cell cytotoxicity in Vero cells", "type": "cell-based", "details": "Table 1", "protocol": "as §2"}, "HSV-1 (KOSSB) HSV-TK−": {"tested_on": "HSV-1 (KOSSB) HSV-TK−", "test": "microbe, parasite or virus in culture", "type": "cell-based, Herpes simplex virus type-1", "details": "Table 4", "protocol": "as §1, with “The” for “Cytopathic effect (CPE) inhibition assays for HSV-1, HSV-2, HCMV and VZV were performed as follows: Low passage human foreskin fibroblasts (HFF) cells were seeded into 96 well tissue culture plates 24 h prior to use at a cell concentration of 2.5×10^4 cells per mL in 0.1 mL of minimal essential medium (MEM) supplemented with 10% fetal bovine serum (FBS). The”"}, "HSV-1 (E-377)": {"tested_on": "HSV-1 (E-377)", "test": "CPE inhibition assay HSV-1 (E-377) in HFF cells", "type": "cell-based, Herpes simplex virus type-1", "details": "Table 4", "protocol": "as §1"}, "whole human PBLs": {"tested_on": "whole human PBLs", "test": "Cell proliferation, whole human PBLs", "type": "cell-based", "details": "Table 1"}, "HSV-1 (KOS) HSV-TK+": {"tested_on": "HSV-1 (KOS) HSV-TK+", "test": "HSV-1 (KOS) HSV-TK+ antiviral assay", "type": "cell-based, Herpes simplex virus type-1", "details": "Table 4", "protocol": "as §1"}, "HCMV (AD169)": {"tested_on": "HCMV (AD169)", "test": "CPE inhibition assay HCMV (AD169) in HFF cells", "type": "cell-based, human cytomegalovirus", "details": "Table 4", "protocol": "as §1"}, "HSV-2 (MS)": {"tested_on": "HSV-2 (MS)", "test": "CPE inhibition assay HSV-2 (MS) in HFF cells", "type": "cell-based, Herpes simplex virus type-2", "details": "Table 4", "protocol": "as §1"}},
  "note": "Where two headings read alike, the source gives them in different places.",
  "data": [
    {"molecule": "CCO[C@@H]1C(Cl)C(=O)NC(=O)N1[C@H]1C[C@H](F)[C@@H](CO)O1", "note": "(single isomer, unassigned; (+)) [RB-2]", "values": [
      {"measurement": "CC50", "setting": "CEM cells", "result": "> 200", "unit": "µM"},
      {"measurement": "VZV (Ellen) EC50", "setting": "VZV (Ellen); Table 3a", "result": 0.3, "unit": "µg/mL"},
      {"measurement": "EBV EC50", "setting": "Epstein-Barr Virus (EBV); Table 3a", "result": "0.15 to 0.3", "unit": "µg/mL"},
      {"measurement": "EBV EC90", "setting": "Epstein-Barr Virus (EBV); Table 3a, in parentheses", "result": 9.8, "unit": "µg/mL"},
      {"measurement": "EC50", "setting": "human HBV", "result": 2.8, "unit": "µM"},
      {"measurement": "CC50", "setting": "HFF cells; Table 3a, read-out: Cell viability HFF cells CC50", "result": "> 330", "unit": "µM"}
    ]},
    {"molecule": "(5R,6R)5-fluoro-O^6-5′-cyclo-5,6-dihydro-3′-azido-3′-deoxythymidine [Compound R-14]", "values": [
      {"measurement": "VZV (Ellen) EC50", "setting": "VZV (Ellen); Table 4", "result": ">100", "unit": "µg/mL"},
      {"measurement": "% Inhibition of DHBV DNA replication in duck hepatocytes @10 μg/ml", "setting": "[1]", "result": 81.0, "unit": "%"},
      {"measurement": "CC50", "setting": "Vero cells", "result": "100 to 200", "unit": "µM"},
      {"measurement": "HSV-1 (KOSSB) HSV-TK− EC50", "setting": "HSV-1 (KOSSB) HSV-TK−", "result": ">50", "unit": "µg/mL"},
      {"measurement": "EBV EC50", "setting": "Epstein-Barr Virus (EBV); Table 4", "result": "<0.08", "unit": "µg/mL"},
      {"measurement": "HSV-1 (E-377) EC50, μg/ml", "setting": "HSV-1 (E-377)", "result": ">100", "unit": "μg/ml"},
      {"measurement": "IC50", "setting": "whole human PBLs", "result": "> 350", "unit": "µM"},
      {"measurement": "HSV-1 (KOS) HSV-TK+ EC50", "setting": "HSV-1 (KOS) HSV-TK+", "result": ">25", "unit": "µg/mL"},
      {"measurement": "HCMV (AD-169) EC50", "setting": "HCMV (AD169)", "result": ">100", "unit": "µg/mL"},
      {"measurement": "HSV-2 (MS) EC50", "setting": "HSV-2 (MS)", "result": ">100", "unit": "µg/mL"},
      {"measurement": "CC50", "setting": "HFF cells; Table 1, read-out: Cell viability, HFF cells, CC50 μM", "result": "> 350", "unit": "µM"}
    ]},
    {"molecule": "(5S,6S)-5-bromo-O^6-5′-cyclo-5,6-dihydro-3′-azido-3′-deoxythymidine [Compound R-1]", "values": [
      {"measurement": "VZV (Ellen) EC50", "setting": "VZV (Ellen); Table 4", "result": ">100", "unit": "µg/mL"},
      {"measurement": "EC50 (DHBV DNA replication in duck hepatocytes)", "setting": "[1]; Table 1", "result": "(EC50 = 0.035 μg/ml"},
      {"measurement": "HSV-1 (KOSSB) HSV-TK− EC50", "setting": "HSV-1 (KOSSB) HSV-TK−", "result": "1 to 10", "unit": "µg/mL"},
      {"measurement": "EBV EC50", "setting": "Epstein-Barr Virus (EBV); Table 4", "result": 1.4, "unit": "µg/mL"},
      {"measurement": "HSV-1 (E-377) EC50, μg/ml", "setting": "HSV-1 (E-377)", "result": 20, "unit": "μg/ml"},
      {"measurement": "IC50", "setting": "whole human PBLs", "result": 34, "unit": "µM"},
      {"measurement": "HSV-1 (KOS) HSV-TK+ EC50", "setting": "HSV-1 (KOS) HSV-TK+", "result": "10 to 25", "unit": "µg/mL"},
      {"measurement": "HCMV (AD-169) EC50", "setting": "HCMV (AD169)", "result": 20, "unit": "µg/mL"},
      {"measurement": "HSV-2 (MS) EC50", "setting": "HSV-2 (MS)", "result": 20, "unit": "µg/mL"}
    ]}
  ]
}
